Patent publication US11401255B2, “Small molecule activators of Parkin enzyme function” (Mayo Foundation for Medical Education and Research, priority 2016, dated 2022)

Key:
FLAG-Parkin C431S = FLAG-Parkin C431S (Homo sapiens (Human), UniProt O60260, C431S); assay: Ub-charging of FLAG-Parkin C431S (western blot); type: cell-based; conditions: 5 μM or 1 μM, 2 h before 3.5 μM CCCP
Description: Another measure of Parkin activation is Ub charging of Parkin. Parkin receives Ub from an E2 enzyme to transfer it to a substrate protein. The Ub is bound by Parkin C431 in an unstable thioester bond. A serine substitution of this amino acid (C431S) leads to a stable oxyester bond. The bound Ub can then be visualized as a band shift in Western blot experiments. HeLa 3×FLAG-Parkin C431S cells were seeded in 12-well plates and allowed to attach overnight. Cells were treated with 5 μM (top panels) or 1 μM (bottom panels) of Compounds 1, 2, 3, 4, and 31 2 h before adding CCCP for another 2 h. 10 μM CCCP was added to positive control (PC) wells whereas all other samples received a low dose concentration of 3.5 μM. Cells were harvested in boiling hot SDS lysis buffer and protein concentration was determined by BCA. Samples were split and left either untreated or were treated with NaOH as indicated. Samples were run on an 8-16% Tris-Glycine gel, blotted onto membranes and probed with antibodies against Flag and pS65-Ub. GAPDH served as a loading control. Band shift indicates Parkin binding to Ubiquitin, which is cleavable with NaOH.
(§1) Cells were harvested in RIPA buffer or NP-40 lysis buffer containing protease and phosphatase inhibitors (Complete and PhosStop, Roche Applied Science) with the exception of Parkin Ub charging experiments where preheated (95° C.) SDS lysis buffer (50 mM Tris pH 7.6, 150 mM NaCl, 1% SDS) was used. Concentration of cell lysates was determined with bicinchoninic acid (Pierce Biotechnology). For Parkin Ub charging experiments, aliquots of lysates were treated with […] for 1 h at 37° C. pH was neutralized with equinormal HCl.
(§2) Protein was subjected to SDS-PAGE using 4-20% or 8-16% Tris-Glycine gels (Invitrogen) and transferred onto polyvinylidene fluoride (PVDF) (Millipore). Membranes were incubated with primary antibodies overnight at 4° C. followed by HRP-conjugated secondary antibodies (1:10,000; Jackson ImmunoResearch Laboratories). Primary antibodies used: beta III tubulin (rabbit, 1:1000, CST, #5568, CST), FLAG (mouse, 1:250,000, Sigma, F3165), GAPDH (mouse, 1:100,000-500,000, Meridian Life science, H86504M), GST (1:10,000, Sigma, G7781), MFN1 (mouse, 1:5,000, Abcam, ab57602), MFN2 (mouse, 1:5,000, Abcam, ab56889), Parkin (mouse, 1:2,000, Cell Signaling, #4211), pSer65-Ub (rabbit, 1:15,000, in-house (Fiesel et al., EMBO Reports (2015) 16:1114-30; Fiesel et al., (2015) Autophagy 11:2125-2126)), TOM70 (rabbit, 1:5,000, Proteintech, 14528-1-AP), UBE2L3 (rabbit, 1:10,000, ProteinTech, 14415-1-AP), VDAC1 (mouse, 1:5,000, Abcam, ab14734), vinculin (mouse, 1:100,000, Sigma, V9131).
HeLa 3×FLAG-Parkin C431S cells were seeded in 6-well plates and allowed to attach overnight. Cells were treated with […] of compounds 5, 21-28, 32, 33, or 43-46 2 h before adding CCCP for another 2 h. 10 VM CCCP was added to positive control (PC) wells, 3.5 μM CCCP to compound (+) and negative control (NC) wells. […] Cells were harvested in boiling hot SDS lysis buffer and protein concentration was determined by BCA. Samples were split and left either untreated or were treated with NaOH as indicated. Samples were run on an 8-16% Tris-Glycine gel, blotted onto membranes and probed with antibodies against Flag. Vinculin served as a loading control. Band shift indicates Parkin binding to Ubiquitin, which is cleavable with NaOH (FIG. 21).

Parkin = Parkin (Homo sapiens (Human), UniProt O60260); assay: Parkin substrates and pS65-Ub western blot in HeLa cells stably expressing untagged Parkin; type: cell-based; conditions: 5 μM, 2 h, then 3.5 μM CCCP
Description: (§3) HeLa cells stably expressing untagged Parkin were left untreated or pre-treated with 5 μM of Compounds 1, 2, 3, 4, and 31 for 2 h and treated without (−) or with (+) low dose CCCP (3.5 μM CCCP). As a positive control (PC), some cells were treated with 10 μM CCCP. Lysates were loaded onto 8-16% Tris-Glycine gels, blotted onto membranes and probed with antibodies against Parkin substrates.
as §3, with “The” for “As a”, “(PC) was” for “(PC), some cells were”, “CCCP for 2 h.” for “CCCP.”, “pS65-Ub.” for “Parkin substrates.”
as §1, §2
As readout for its activation, a catalytic site mutant that can be used to trap Ub-charged Parkin was employed. […] To further validate effects on enhanced activation, we used HeLa cells expressing untagged native Parkin. PC treatment with 10 μM CCCP induced pSer65-Ub signals and the complete degradation of some substrates (e.g., Mitofusins) while the most abundant, VDAC1, was still ubiquitylated (FIG. 8). Similar effects were seen when cells had been pre-incubated with 5 μM of compound before a low dose CCCP, which had no effect on its own.

| SMILES | Ub-charging of FLAG-Parkin C431S (WB) (FLAG-Parkin C431S) | Parkin substrate levels (ubiquitination and degradation) (Parkin) | pS65-Ub signal (western blot) (Parkin) |
| --- | --- | --- | --- |
| O=C(Cn1cnc2c1CCCC2)Nc1ccc(-c2ccccc2)cc1 [Compound 1] | enhanced Ub-charging | reduced substrate levels | robust induction of pS65-Ub |
| CC(C)c1nccn1CC(=O)Nc1ccc(-c2ccccc2)cc1 [Compound 2] | enhanced Ub-charging | reduced substrate levels | robust induction of pS65-Ub |
| CC(C)(C)Sc1ccc(NC(=O)Cn2ccnc2)cc1 [Compound 3] | enhanced Ub-charging | reduced substrate levels | robust induction of pS65-Ub |
| O=C(Cn1ccnc1-c1ccccn1)Nc1ccc(-c2ccccc2)cc1 [Compound 4] | enhanced Ub-charging | reduced substrate levels | robust induction of pS65-Ub |
| Cc1nc2c(c(N3CCCN(Cc4ccccc4)CC3)n1)CCCC2 [Compound 31] | enhanced Ub-charging | reduced substrate levels | robust induction of pS65-Ub |
